One experiment deals with Protein Tat (Human immunodeficiency virus type 1 group M subtype B (isolate HXB2)(HIV-1), UniProt P04608). The format is functional.
A further experiment deals with Genome polyprotein (Hepatitis C virus, UniProt Q2Q167). Put plainly: HCV core protein dimerization inhibitors, dose response, biochemical, TR-FRET (AID 2159).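 Also: blocks dimerization of HCV core protein measured by TR-FRET between tagged core106 pairs.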 More on the design: species or system Hepacivirus hominis.
A further experiment deals with INS1. The experiment is described as follows: beta cell apoptosis inhibitors, cytokine rescue, dose response, luminescence, retest (AID 449756).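 Also: cell death triggered by IL-1 beta plus TNF-alpha plus IFN-gamma mixture; protective hits raise ATP signal compared with cytokine alone wells.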 The settings on record: Rattus norvegicus. The format is functional, cell-based.
Another experiment has as its target T1, Caspase-6 (Homo sapiens, UniProt P55212).
T1 sequence (P55212 whole entry): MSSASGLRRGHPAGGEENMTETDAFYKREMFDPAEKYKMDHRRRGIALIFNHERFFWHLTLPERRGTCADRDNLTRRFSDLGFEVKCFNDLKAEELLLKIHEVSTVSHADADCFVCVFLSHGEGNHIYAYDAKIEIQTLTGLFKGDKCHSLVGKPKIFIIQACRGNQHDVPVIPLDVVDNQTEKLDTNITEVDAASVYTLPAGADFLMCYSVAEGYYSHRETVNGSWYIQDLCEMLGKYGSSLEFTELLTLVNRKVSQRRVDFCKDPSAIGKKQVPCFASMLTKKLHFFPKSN
The experiment is described as follows: human caspase-6 inhibitors, dose response, biochemical, VEID-R110 fluorescence, cherry-pick (AID 720632).

The target in experiment [1] is E3 ubiquitin-protein ligase Mdm2 (Homo sapiens, UniProt Q00987). Put plainly: enhancers of MDM2-luciferase reporter signal, concentration-effect titration, project on inhibitors of MDM2 ubiquitin ligase, cellular assay, luminescent readout, 384-well plate format (AID 1394).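 Also: MDM2 E3 inhibitors raise luminescence so EC50 is for signal enhancement.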 Type of experiment: functional.
For experiment [2], the target named is Glyceraldehyde-3-phosphate dehydrogenase (Homo sapiens, UniProt P04406).
Experiment [3] has as its target T2, Bcl-2-related protein A1 (Mus musculus, UniProt Q07440).
T2 sequence (Q07440 whole entry): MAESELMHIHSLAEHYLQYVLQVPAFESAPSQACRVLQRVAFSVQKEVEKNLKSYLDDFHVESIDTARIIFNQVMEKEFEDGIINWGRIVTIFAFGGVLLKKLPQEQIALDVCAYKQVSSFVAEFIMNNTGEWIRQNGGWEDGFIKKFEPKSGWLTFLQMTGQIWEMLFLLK
The experiment is described as follows: Bfl-1 inhibitors blocking BH3 peptide binding, confirmation, biochemical, TR-FRET, mouse Bfl-1 (AID 621).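 Also: TR-FRET binding of GST-Bfl-1 to FITC-labelled Bid peptide via terbium antibody.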

Experiment [4] deals with T2, Bcl-2-related protein A1. Put plainly: Bfl-1 binding inhibitors, SAR follow-up, biochemical, fluorescence polarization (AID 1070).

Molecules are shown by their SMILES. Active and inactive are the calls of the source. Where only a bound is given, the exact number is not on record here.

Sequence of Genome polyprotein (Q2Q167 whole entry): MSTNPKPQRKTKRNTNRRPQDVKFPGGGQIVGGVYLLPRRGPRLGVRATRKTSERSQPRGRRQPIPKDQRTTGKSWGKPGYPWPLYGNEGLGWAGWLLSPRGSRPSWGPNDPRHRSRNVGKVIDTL
Sequence of E3 ubiquitin-protein ligase Mdm2 (Q00987 whole entry): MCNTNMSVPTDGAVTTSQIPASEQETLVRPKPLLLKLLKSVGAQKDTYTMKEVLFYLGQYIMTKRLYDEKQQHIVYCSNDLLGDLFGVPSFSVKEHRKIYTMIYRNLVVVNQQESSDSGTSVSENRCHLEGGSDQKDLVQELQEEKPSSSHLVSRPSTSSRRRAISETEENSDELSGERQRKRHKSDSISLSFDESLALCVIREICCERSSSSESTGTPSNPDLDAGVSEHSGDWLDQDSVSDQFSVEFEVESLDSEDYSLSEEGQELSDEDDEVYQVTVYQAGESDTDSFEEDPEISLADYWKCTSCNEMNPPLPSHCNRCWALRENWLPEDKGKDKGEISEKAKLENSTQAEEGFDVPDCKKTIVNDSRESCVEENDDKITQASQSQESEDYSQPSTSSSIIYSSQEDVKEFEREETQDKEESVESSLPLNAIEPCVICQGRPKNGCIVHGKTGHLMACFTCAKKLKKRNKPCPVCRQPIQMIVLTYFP
Sequence of Glyceraldehyde-3-phosphate dehydrogenase (P04406 whole entry): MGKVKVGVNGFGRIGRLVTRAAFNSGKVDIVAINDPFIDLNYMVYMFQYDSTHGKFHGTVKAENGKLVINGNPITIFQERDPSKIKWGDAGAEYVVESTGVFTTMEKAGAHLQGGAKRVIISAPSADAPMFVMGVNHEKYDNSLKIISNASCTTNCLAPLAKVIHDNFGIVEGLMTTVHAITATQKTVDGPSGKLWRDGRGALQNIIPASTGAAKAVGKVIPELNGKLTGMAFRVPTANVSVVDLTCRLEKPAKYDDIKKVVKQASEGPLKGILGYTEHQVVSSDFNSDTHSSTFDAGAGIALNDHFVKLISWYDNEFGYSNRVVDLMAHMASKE
Sequence of Protein Tat (P04608 whole entry): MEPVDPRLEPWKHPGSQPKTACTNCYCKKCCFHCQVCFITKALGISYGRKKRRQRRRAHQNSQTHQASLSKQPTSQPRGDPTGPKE

`Cn1c(SCC(=O)c2cc(Cl)c(Cl)s2)nnc1-c1ccco1`: on Protein Tat, the IC50 is > 50 µM (active).
As to `CC1=NN(c2ccc(C)c(C)c2)C(=O)/C1=C\C=C\c1ccc([N+](=O)[O-])o1`, the 50% inhibitory concentration (IC50) on Genome polyprotein was > 49.8 µM (not active). Further, the AC50 with INS1 is 4.08 µM (active); at Caspase-6, 1.79 µM (active).
Regarding `COc1ccc2[nH]c(C(=O)O)c(CCNC(C)=O)c2c1`, the half-maximal effective concentration (EC50) in experiment [1] was 0.39 µM (not active).
For `COc1ccc(N2CCN(C(=O)c3ccc4c(c3)NC(=O)C(CSCc3ccc(C)cc3)N4)CC2)cc1` (centres undefined), at Genome polyprotein, the 50% inhibitory concentration (IC50) is > 49.8 µM (not active).
As to `CC1CN(C2=C(Cl)C(=O)N(c3ccc(Cl)c(Cl)c3)C2=O)CCN1` (centres undefined), the IC50 in experiment [2] is > 100 µM (not active); at Bcl-2-related protein A1 [3], 1.95 µM (active); at Bcl-2-related protein A1 [4] it was 6.96 µM (active).

(Values after ChEMBL document CHEMBL1201862, “PubChem BioAssay data set” (2004).)
